In patent US11084829B2, “Ubiquitin-specific-processing protease 7 (USP7) modulators and uses thereof” (RAPT THERAPEUTICS, INC., priority 2018, dated 2021) one finds IC50 data, which are given here for 27 compounds.

The assay deals with USP7 (Homo sapiens, UniProt Q93009). The experiment in a line: USP7 inhibitory potency (IC50). Type of assay: biochemical. As to the method: Activity for compounds described herein is provided in Table 2, wherein potency levels are provided as follows: (Potency: USP7 IC50: A<0.01 μM; B=0.01-0.1 μM; C=>0.1 μM.
USP7, sequence (Q93009 whole entry): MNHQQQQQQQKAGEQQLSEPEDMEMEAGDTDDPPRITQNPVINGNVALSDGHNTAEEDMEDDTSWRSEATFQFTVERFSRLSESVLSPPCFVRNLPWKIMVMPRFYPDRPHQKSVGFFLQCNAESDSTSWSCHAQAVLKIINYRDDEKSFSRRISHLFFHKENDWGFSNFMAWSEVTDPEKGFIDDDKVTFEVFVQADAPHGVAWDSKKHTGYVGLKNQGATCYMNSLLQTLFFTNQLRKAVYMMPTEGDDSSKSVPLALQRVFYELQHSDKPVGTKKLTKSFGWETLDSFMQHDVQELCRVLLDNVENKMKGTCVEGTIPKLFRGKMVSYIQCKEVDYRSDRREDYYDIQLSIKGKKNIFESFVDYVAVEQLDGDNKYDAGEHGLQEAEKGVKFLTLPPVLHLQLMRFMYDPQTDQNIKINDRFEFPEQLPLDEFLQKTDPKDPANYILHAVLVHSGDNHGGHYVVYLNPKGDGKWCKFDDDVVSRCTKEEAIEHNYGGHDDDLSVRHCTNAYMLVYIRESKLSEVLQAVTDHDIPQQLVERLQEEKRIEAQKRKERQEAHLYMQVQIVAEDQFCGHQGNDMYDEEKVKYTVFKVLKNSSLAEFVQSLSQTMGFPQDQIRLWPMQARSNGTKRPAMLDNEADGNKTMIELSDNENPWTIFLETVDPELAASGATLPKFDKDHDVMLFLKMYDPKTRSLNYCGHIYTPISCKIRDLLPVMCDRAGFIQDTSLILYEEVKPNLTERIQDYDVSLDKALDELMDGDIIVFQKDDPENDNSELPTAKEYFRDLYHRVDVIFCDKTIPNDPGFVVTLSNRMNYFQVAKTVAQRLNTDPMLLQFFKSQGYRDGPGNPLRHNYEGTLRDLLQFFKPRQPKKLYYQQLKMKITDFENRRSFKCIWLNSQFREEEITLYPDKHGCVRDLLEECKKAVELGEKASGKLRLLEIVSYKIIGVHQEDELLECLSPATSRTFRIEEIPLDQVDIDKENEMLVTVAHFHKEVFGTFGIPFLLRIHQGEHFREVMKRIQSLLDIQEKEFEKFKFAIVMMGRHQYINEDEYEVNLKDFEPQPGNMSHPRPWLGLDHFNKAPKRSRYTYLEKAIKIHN
By IC50 is commonly meant the concentration needed to halve the response being measured. A high value points to weaker potency. For `Cc1cc(Cl)cc(-c2ncnc3cc(CN4C(=O)CSC4=O)sc23)c1CC1CNCCO1` (stereo not drawn) [Example 171, 3-((4-(5-chloro-3-methyl-2-(morpholin-2-ylmethyl)phenyl)thieno[3,2-d]pyrimidin-6-yl)methyl)thiazolidine-2,4-dione], the half-maximal inhibitory concentration (IC50) was below 10 nM.

For the compound `Cc1cc(Cl)cc(-c2ccnc3cc(CN4C(=O)CCC4=O)sc23)c1CN1C[C@@H](C)N[C@@H](C)C1` [Example 19, 1-((7-(5-chloro-2-(((3 S,5R)-3,5-dimethylpiperazin-1-yl)methyl)-3-methylphenyl)thieno[3,2-b]pyridin-2-yl)methyl)pyrrolidine-2,5-dione], the IC50 was 10 to 100 nM.

`Cc1cc(Cl)cc(-c2ncnc3cc(CN4C(=O)C5CC5C4=O)sc23)c1CC1CNCC2(CC2)O1` (stereo not drawn) [Example 208, 3-((4-(2-((4-oxa-7-azaspiro[2.5]octan-5-yl)methyl)-5-chloro-3-methylphenyl)thieno[3,2-d]pyrimidin-6-yl)methyl)-3-azabicyclo[3.1.0]hexane-2,4-dione] gave an IC50 below 10 nM.

`Cc1cc(Cl)cc(-c2ncnc3cc(CN4C(=O)COC4=O)sc23)c1C[C@@H]1CNCC(C)(C)O1` [Example 234, (R)-3-((4-(5-chloro-2-((6,6-dimethylmorpholin-2-yl)methyl)-3-methylphenyl)thieno[3,2-d]pyrimidin-6-yl)methyl)oxazolidine-2,4-dione] showed a half-maximal inhibitory concentration (IC50) below 10 nM.

For the compound `C[C@H]1CNCCN1Cc1c(F)cccc1-c1ncnc2cc(CN3C(=O)C4CC4C3=O)sc12` (stereo partly drawn) [Example 72, 3-((4-(3-fluoro-2-(((S)-2-methylpiperazin-1-yl)methyl)phenyl)thieno[3,2-d]pyrimidin-6-yl)methyl)-3-azabicyclo[3.1.0]hexane-2,4-dione], the IC50 was above 100 nM.

`Cc1cc(Cl)cc(-c2ccnc3cc(Cn4c(=O)ccn(CC(F)(F)F)c4=O)sc23)c1CN1CCCNCC1=O` [Example 256, 3-((7-(5-chloro-3-methyl-2-((2-oxo-1,4-diazepan-1-yl)methyl)phenyl)thieno[3,2-b]pyridin-2-yl)methyl)-1-(2,2,2-trifluoroethyl)pyrimidine-2,4(1H,3H)-dione] displayed an IC50 of 10 to 100 nM.

`Cc1cc(Cl)cc(-c2ccnc3cc([C@H](C)N4C(=O)C5C(C4=O)C5(C)C)sc23)c1C[C@@H]1CNCCO1` (stereo partly drawn) [Example 133, 3-((S)-1-(7-(5-chloro-3-methyl-2-(((R)-morpholin-2-yl)methyl)phenyl)thieno[3,2-b]pyridin-2-yl)ethyl)-6,6-dimethyl-3-azabicyclo[3.1.0]hexane-2,4-dione] showed an IC50 below 10 nM.

Compound `Cc1cc(Cl)cc(-c2ccnc3cc(CN4C(=O)CN(C)C4=O)sc23)c1C[C@@H]1CNCCO1` [Example 126, (R)-3-((7-(5-chloro-3-methyl-2-(morpholin-2-ylmethyl)phenyl)thieno[3,2-b]pyridin-2-yl)methyl)-1-methylimidazolidine-2,4-dione] gave an IC50 below 10 nM.

“3-((7-(3,5-dichloro-2-(((2S,6S)-2,6-dimethylpiperazin-1-yl)methyl)phenyl)thieno[3,2-b]pyridin-2-yl)methyl)-1-methyldihydropyrimidine-2,4(1H,3H)-dione [Example 93]” yielded an IC50 below 10 nM.

Compound `Cc1cc(C)c(CN2CCNC[C@@H]2C)c(-c2ncnc3cc(CN4C(=O)C5CC5C4=O)sc23)c1` (stereo partly drawn) [Example 71, 3-((4-(3,5-dimethyl-2-(((S)-2-methylpiperazin-1-yl)methyl)phenyl)thieno[3,2-d]pyrimidin-6-yl)methyl)-3-azabicyclo[3.1.0]hexane-2,4-dione] displayed an IC50 above 100 nM.

`Cc1cc(Cl)cc(-c2ncnc3cc(CN4C(=O)CN(CC(F)(F)F)C4=O)sc23)c1CN1[C@@H](C)CNC[C@@H]1C` [Example 272, 3-((4-(5-chloro-2-(((2S,6S)-2,6-dimethylpiperazin-1-yl)methyl)-3-methylphenyl)thieno[3,2-d]pyrimidin-6-yl)methyl)-1-(2,2,2-trifluoroethyl)imidazolidine-2,4-dione] came in with an IC50 below 10 nM.

`Cc1cc(Cl)cc(-c2ncnc3cc(CN4C(=O)C5CC5C4=O)sc23)c1CC1CNCCCO1` (stereo not drawn) [Example 189, 3-((4-(2-((1,4-oxazepan-2-yl)methyl)-5-chloro-3-methylphenyl)thieno[3,2-d]pyrimidin-6-yl)methyl)-3-azabicyclo[3.1.0]hexane-2,4-dione] had an IC50 below 10 nM.

`Cc1cc(Cl)cc(-c2ncnc3cc(CN4C(=O)NC(C)C4=O)sc23)c1C[C@@H]1CNCCO1` (stereo partly drawn) [Example 244, 3-((4-(5-chloro-3-methyl-2-(((R)-morpholin-2-yl)methyl)phenyl)thieno[3,2-d]pyrimidin-6-yl)methyl)-5-methylimidazolidine-2,4-dione] gave an IC50 below 10 nM.

Take `Cc1cc(Cl)cc(-c2ncnc3cc(CN4C(=O)C5CCCCN5C4=O)sc23)c1CC1CNCCO1` (stereo not drawn) [Example 184, 2-((4-(5-chloro-3-methyl-2-(morpholin-2-ylmethyl)phenyl)thieno[3,2-d]pyrimidin-6-yl)methyl)tetrahydroimidazo[1,5-a]pyridine-1,3(2H,5H)-dione]: the concentration for half-maximal inhibition (IC50) is below 10 nM.

Compound `CN1CC(=O)N(Cc2cc3ncnc(-c4cc(Cl)cc(Cl)c4CC4CNCC(C)(C)O4)c3s2)C1=O` (stereo not drawn) [Example 253, 3-((4-(3,5-dichloro-2-((6,6-dimethylmorpholin-2-yl)methyl)phenyl)thieno[3,2-d]pyrimidin-6-yl)methyl)-1-methylimidazolidine-2,4-dione] showed an IC50 below 10 nM.

In turn, `Cc1cc(Cl)cc(-c2ccnc3cc(CN4C(=O)CCC4=O)sc23)c1CN1CC2CCC1CN2` (stereo not drawn) [Example 9, 1-((7-(2-((2,5-diazabicyclo[2.2.2]octan-2-yl)methyl)-5-chloro-3-methylphenyl)thieno[3,2-b]pyridin-2-yl)methyl)pyrrolidine-2,5-dione] yielded an IC50 below 10 nM.

`Cc1cc(Cl)cc(-c2ncnc3cc(CN4C(=O)CCN(CC(F)(F)F)C4=O)sc23)c1CN1[C@@H](C)CNC[C@@H]1C` [Example 260, 3-((4-(5-chloro-2-(((2S,6S)-2,6-dimethylpiperazin-1-yl)methyl)-3-methylphenyl)thieno[3,2-d]pyrimidin-6-yl)methyl)-1-(2,2,2-trifluoroethyl)dihydropyrimidine-2,4(1H,3H)-dione] yielded an IC50 below 10 nM.

With `Cc1cc(Cl)cc(-c2ccnc3c(F)c(CN4C(=O)CNC4=O)sc23)c1C[C@@H]1CNCCO1` [Example 147, (R)-3-((7-(5-chloro-3-methyl-2-(morpholin-2-ylmethyl)phenyl)-3-fluorothieno[3,2-b]pyridin-2-yl)methyl)imidazolidine-2,4-dione], the IC50 fell in the range of 10 to 100 nM.

The compound `CCN1CC(=O)N(Cc2cc3ncnc(-c4cc(Cl)cc(C)c4CC4CNCCO4)c3s2)C1=O` (stereo not drawn) [Example 188, 3-((4-(5-chloro-3-methyl-2-(morpholin-2-ylmethyl)phenyl)thieno[3,2-d]pyrimidin-6-yl)methyl)-1-ethylimidazolidine-2,4-dione] returned an IC50 below 10 nM.

In turn, `Cc1cc(Cl)cc(-c2ccnc3cc(CN4C(=O)CCC4=O)sc23)c1CN1[C@H](C)CNC[C@H]1C` [Example 27, 1-((7-(5-chloro-2-(((2R,6R)-2,6-dimethylpiperazin-1-yl)methyl)-3-methylphenyl)thieno[3,2-b]pyridin-2-yl)methyl)pyrrolidine-2,5-dione] had a half-inhibitory concentration (IC50) of 10 to 100 nM.

As to `Cc1cc(Cl)cc(-c2ccnc3cc(CN4C(=O)C5C(C4=O)C5(C)C)sc23)c1CC1CNCC(C)(C)O1` (stereo not drawn) [Example 97, 3-((7-(5-chloro-2-((6,6-dimethylmorpholin-2-yl)methyl)-3-methylphenyl)thieno[3,2-b]pyridin-2-yl)methyl)-6,6-dimethyl-3-azabicyclo[3.1.0]hexane-2,4-dione], the IC50 is below 10 nM.

Turning to `Cc1cc(Cl)cc(-c2ccnc3cc(CN4C(=O)C5CC5C4=O)sc23)c1CN1[C@@H](C)CN(C(C)C)C[C@@H]1C` (stereo partly drawn) [Example 32, 3-((7-(5-chloro-2-(((2S,6S)-4-isopropyl-2,6-dimethylpiperazin-1-yl)methyl)-3-methylphenyl)thieno[3,2-b]pyridin-2-yl)methyl)-3-azabicyclo[3.1.0]hexane-2,4-dione], the IC50 is below 10 nM.

In the case of `COC(=O)[C@H]1CCC(=O)N1Cc1cc2ncnc(-c3cc(Cl)cc(C)c3C[C@@H]3CNCC(C)(C)O3)c2s1` [Example 224, methyl (R)-1-((4-(5-chloro-2-(((R)-6,6-dimethylmorpholin-2-yl)methyl)-3-methylphenyl)thieno[3,2-d]pyrimidin-6-yl)methyl)-5-oxopyrrolidine-2-carboxylate], the half-inhibitory concentration (IC50) was below 10 nM.

In turn, `Cc1cc(Cl)cc(-c2ncnc3cc(CN4C(=O)CCN(CCCC(=O)O)C4=O)sc23)c1C[C@@H]1CNCCO1` [Example 265, (R)-4-(3-((4-(5-chloro-3-methyl-2-(morpholin-2-ylmethyl)phenyl)thieno[3,2-d]pyrimidin-6-yl)methyl)-2,4-dioxotetrahydropyrimidin-1(2H)-yl)butanoic acid] yielded an IC50 of 10 to 100 nM.

In turn, `Cc1cc(Cl)cc(-c2ncnc3cc(CN4C(=O)CCC4C(F)(F)F)sc23)c1CC1CNCC(C)(C)O1` (stereo not drawn) [Example 194, 1-((4-(5-chloro-2-((6,6-dimethylmorpholin-2-yl)methyl)-3-methylphenyl)thieno[3,2-d]pyrimidin-6-yl)methyl)-5-(trifluoromethyl)pyrrolidin-2-one] had a half-inhibitory concentration (IC50) below 10 nM.

On to `Cc1cc(Cl)cc(-c2ccnc3cc(CN4C(=O)CCC4=O)sc23)c1CN1CC2CC1CN2` (stereo not drawn) [Example 15, 1-((7-(2-((2,5-diazabicyclo[2.2.1]heptan-2-yl)methyl)-5-chloro-3-methylphenyl)thieno[3,2-b]pyridin-2-yl)methyl)pyrrolidine-2,5-dione], for which the IC50 was below 10 nM.

`Cc1cc(Cl)cc(-c2ccnc3cc(CN4C(=O)CN(C)C4=O)sc23)c1CC1CNCC(C)(C)O1` (stereo not drawn) [Example 121, 3-((7-(5-chloro-2-((6,6-dimethylmorpholin-2-yl)methyl)-3-methylphenyl)thieno[3,2-b]pyridin-2-yl)methyl)-1-methylimidazolidine-2,4-dione]: the half-maximal inhibitory concentration (IC50) is below 10 nM.
